Structures are written as SMILES. Entries after “also recorded” stand apart in the source; their conditions may differ. Where two headings read alike, the source gives them in different places.

The subject of data set [1] is SW620 (colorectal adenocarcinoma, metastatic). The data set is described as follows: Proliferation assay (MTT, 72 h) on SW620. The conditions noted are these: Homo sapiens, SW-620, SW620, 72 h. The data set is classed as cell-based. Here is the method: (§1) Human cell lines SW620 (colorectal adenocarcinoma, metastatic), MCF-7 (human breast adenocarcinoma), CFPAC-1 (pancreatic adenocarcinoma), HeLa (cervical carcinoma), and HFF-1 (human foreskin fibroblasts) were obtained from the American Type Culture Collection (ATCC). Cells were cultured in a humidified atmosphere at 37 °C with 5% CO2. As a growth medium, Dulbecco’s modified Eagle medium (DMEM) was used with the addition of foetal bovine serum (10%), L-glutamine (2 mM), and antibiotics: streptomycin ([…]) and penicillin (100 U/ml).
(§2) Cells were seeded onto 96-well microtiter plates at a seeding density of 3000 cells/well for carcinoma cell lines, and 5000 cells/well for normal human fibroblasts. The next day, cells were treated with test agents at five different concentrations (0.01–100 µM) and further incubated for 72 h. […] 5-Fluorouracil (5-FU, 0.384 M fluorouracilum, Pliva 500 mg/10 ml) dissolved in physiological solution was used as a positive control. Following 72 h incubation, the MTT assay was performed and measured absorbances were transformed into a percentage of cell growth as described previously. Results were obtained from three independent experiments. IC50 values were calculated using linear regression analysis (FORECAST option taking into account the concentration range of two experimental points above and below IC50).

In data set [2] the test system is CFPAC-1 (pancreatic adenocarcinoma). The data set is described as follows: Proliferation assay (MTT, 72 h) on CFPAC-1. The conditions noted are these: Homo sapiens, CFPAC-1, 72 h. The format is cell-based. Here is the method: as §1, §2
For data set [3], the system named is MCF-7 (human breast adenocarcinoma). The data set is described as follows: Proliferation assay (MTT, 72 h) on MCF-7. The data set is classed as cell-based. As to conditions: MCF7, MCF-7, 72 h. Here is the method:
as §1, §2

Data set [4] has as its system HeLa (cervical carcinoma). The data set is described as follows: Proliferation assay (MTT, 72 h) on HeLa. The data set is classed as cell-based. As to conditions: Homo sapiens. As for the experimental part:
as §1, §2

The subject of data set [5] is HFF-1 (human foreskin fibroblasts). The data set is described as follows: Proliferation assay (MTT, 72 h) on normal fibroblasts HFF-1. The data set is classed as cell-based. As to conditions: HFF-1 normal fibroblasts. Here is the method: as §1, §2
In data set [6] the test system is Bloodstream form T. b. brucei (strain 221). The data set is described as follows: Antitrypanosomal screening (resazurin). The format is cell-based. As to conditions: Trypanosoma brucei; for IC90: concentration that inhibited growth by 90%, mean ± SEM; for IC50: mean of triplicate ± SEM. Here is the method:
Resazurin (20 μl at 0.125 mg ml^−1) was added after 48 h, the plates were incubated for a further 16 h, and then read in a Spectramax plate reader, and data analysed using GraphPad Prism. Each drug was tested in triplicate.

The test system of data set [7] is L6 cells (a rat myoblast line). The data set is described as follows: L6 cell proliferation (cytotoxicity, resazurin). The data set is classed as cell-based. As to conditions: 144 h; rat myoblast L6, 6 days. Background: Resazurin is reduced to fluorescent resorufin, in cell work by metabolically active cells.
The next data set has as its system calf thymus ctDNA. The data set is described as follows: Fluorimetric titration with ctDNA. The format is binding. The conditions noted are these: for I/I0: fluorescence intensity of complex / starting intensity, ctDNA, pH 7.0; for LogKs: fluorescence titration with ctDNA, Scatchard, fixed n = 0.6, pH 7.0, sodium cacodylate I = 0.05 mol dm−3. Here is the method: The calf thymus ctDNA was additionally sonicated and filtered through a […]. Polynucleotide concentration was determined spectroscopically[50]^,[51] as the concentration of phosphates. Fluorescence spectra were recorded on a Varian Cary Eclipse spectrophotometer at 25 °C using appropriate 1 cm path quartz cuvettes. […] In fluorimetric experiments, an excitation wavelength of λexc ≥300 nm was used to avoid the inner filter effect caused due to increasing absorbance of the polynucleotide. Emissions were determined in the range λem = 350–650 nm. Values for Ks were obtained by processing titration data using the Scatchard equation[52].

The subject of data set [8] is ctDNA. The data set is described as follows: Thermal denaturation of ctDNA. As to conditions: r = [compound]/[polynucleotide] = 0.3, pH 7.0; error ±0.5 °C. The data set is classed as binding, calf. Here is the method:
(§3) These solutions were used for measurements in an aqueous buffer (pH = 7, sodium cacodylate buffer, I = 0.05 mol dm^−3). Polynucleotides were purchased as noted: poly (dAdT)2 and calf thymus ctDNA (Sigma-Aldrich). Polynucleotides were dissolved in Na-cacodylate buffer, I = 0.05 mol dm^−3, pH = 7. The calf thymus ctDNA was additionally sonicated and filtered through a […]. Polynucleotide concentration was determined spectroscopically[50]^,[51] as the concentration of phosphates.
(§4) The UV/Vis spectra were recorded on a Varian Cary 100 Bio spectrophotometer using 1 cm path quartz cuvettes. Calibration experiments were performed at 25 °C and pH = 7 (I = 0.05 mol dm^−3, sodium cacodylate buffer). Absorption maxima and corresponding molar extinction coefficients (ε) of benzothiazole derivatives are given in Table S1 (Supplementary material). Thermal melting curves for DNA and their complexes with studied compounds were determined as previously described by following the absorption change at 260 nm as a function of temperature. The absorbance of the ligands was subtracted from every curve and the absorbance scale was normalised. Tm values are the midpoints of the transition curves determined from the maximum of the first derivative and checked graphically by the tangent method. The ΔTm values were calculated by subtracting Tm of the free nucleic acid from Tm of the complex. Every ΔTm value reported here was the average of at least two measurements. The error in ΔTm is ±0.5 °C.

A further data set concerns poly (dAdT)2. The data set is described as follows: Thermal denaturation of p(dAdT)2. The conditions noted are these: r = [compound]/[polynucleotide] = 0.3, pH 7.0; error ±0.5 °C. The format is binding. As for the experimental part:
as §3, §4

For data set [9], the system named is ctDNA. The data set is described as follows: CD titration of ctDNA. The data set is classed as binding, calf. As to conditions: for induced CD (ICD) signal with ctDNA: CD titration, pH 7.0, λ > 300 nm; for binding mode to ctDNA: concluded from ICD, ΔTm and binding constants. Here is the method:
as §3
CD spectra were recorded on a JASCO J815 spectrophotometer in 1 cm path quartz cuvettes. CD parameters: range = 500–220 nm, data pitch = 2, standard sensitivity, scanning speed = 200 nm/min, accumulation = 3–5. Titrations were performed at 25 °C and pH = 7 (I = 0.05 mol dm^−3, sodium cacodylate buffer). CD experiments were done by adding portions of the compound stock solution into the polynucleotide solution.

Data set [10] concerns Bloodstream form T. b. brucei (strain 221). As to conditions: read-out: T. brucei IC50; reference drug; ref Wilkinson et al.[54]; cited from earlier work.
Data set [11] deals with WI-38 fibroblast cell line. The data set is described as follows: Growth inhibition of WI-38 fibroblasts (control substance). As to conditions: Homo sapiens; WI-38 fibroblast cell line (footnote c). The format is cell-based.

`CS(=O)(=O)O.c1ccc(-n2cc(COc3nc4ccc(C5=NCCN5)cc4s3)nn2)cc1` [11a, 6-(4,5-Dihydro-1H-imidazol-3-ium-2-yl)-2-[(1-phenyl-1H-1,2,3-triazol-4-yl)methoxy] benzothiazole methanesulfonate] registered a melting point of 270 to 274 °C. For the same molecule, in data set [1], the midpoint of inhibition, the IC50, lay at 460 ± 30 nM. This molecule also gave an IC50 in [2] of 450 ± 10 nM. The molecule further showed an IC50 in [3] of 490 ± 10 nM. In addition, in data set [4], the half-maximal inhibitory concentration (IC50) was 570 ± 190 nM. The molecule also returned an IC50 in [5] of 260 ± 20 nM. For the same molecule, in [6], it took 280 ± 30 nM to reach the 90% level (IC90) and the half-maximal inhibitory concentration (IC50) is 230 ± 20 nM. In addition, the IC50 in data set [7] is under 200 nM. In the data set with calf thymus ctDNA, this molecule came in with an I/I0 of 0.18 and a LogKs of 6.8. In addition, the “ΔTm ctDNA” value in the data set on ctDNA [8] amounted to 2.1 °C. Moreover, in the data set on poly (dAdT)2, the “ΔTm p(dAdT)2” value was determined as 4.1 °C. Further, in the data set on ctDNA [9], the “induced CD (ICD) signal with ctDNA” value is “bisignate signal with maxima at 317 and 360 nm”; the “binding mode to ctDNA” value is “dimer within the minor groove; also recorded: minor groove binding”.
`CS(=O)(=O)O.Clc1ccc(-n2cc(COc3nc4ccc(C5=NCCN5)cc4s3)nn2)cc1` [11b, 6-(4,5-Dihydro-1H-imidazol-3-ium-2-yl)-2-{[1-(4-chlorophenyl)-1H-1,2,3-triazol-4-yl]methoxy}benzothiazole methanesulfonate] yielded a melting point of 263 to 266 °C. The same molecule registered a concentration for half-maximal inhibition (IC50) in data set [1] of 2840 ± 190 nM. Moreover, the IC50 in data set [2] came to 3090 ± 190 nM. Besides, inhibition in [3] was half-maximal at 3120 ± 360 nM (IC50). The same molecule showed an IC50 in [4] of 2610 ± 420 nM. Besides, the concentration for half-maximal inhibition (IC50) in data set [5] turned out to be 170 ± 90 nM. Further, in [6], it took 120 ± 30 nM to reach the 90% level (IC90) and the 50% inhibitory concentration (IC50) worked out at 90 ± 20 nM. Moreover, the IC50 in data set [7] is under 2000 nM. Moreover, in the data set on calf thymus ctDNA, the I/I0 is reported as 0.21 and the LogKs is on record as 6.6. For the same molecule, the “ΔTm ctDNA” value in the data set with ctDNA [8] is 1.2 °C. In addition, in the data set with poly (dAdT)2, the “ΔTm p(dAdT)2” value was 1.1 °C. In addition, in the data set on ctDNA [9], the “induced CD (ICD) signal with ctDNA” value is “small negative ICD signal” and the “binding mode to ctDNA” value is given as “intercalation”.
`CC1CS(=O)(=O)CCN1/N=C/c1ccc([N+](=O)[O-])o1` (stereo not drawn) [Nifurtimox]: the 50% inhibitory concentration (IC50) in data set [10] was 2000 ± 240 nM.
As for `O=c1[nH]cc(F)c(=O)[nH]1` [5-FU, 5-Fluorouracil, reference compound], the IC50 turned out to be 6400 ± 220 nM in data set [1]; 6450 ± 660 nM in data set [2]; 90 ± 10 nM in data set [3]; 47500 ± 1930 nM in data set [4]; 940 nM in data set [11].
`CS(=O)(=O)O.Clc1ccc(-n2cc(-c3nc4ccc(C5=NCCCN5)cc4s3)nn2)cc1` [15b, 6-(3,4,5,6-Tetrahydropyrimidin-1-ium-2-yl)-2-[1-(4-chlorophenyl)-1H-1,2,3-triazole-4-yl]benzothiazole methanesulfonate]: the melting point was 288 to 293 °C. In [1], this molecule registered an IC50 of 890 ± 310 nM. Moreover, in data set [2], the midpoint of inhibition, the IC50, lay at 710 ± 170 nM. Further, in data set [3], the IC50 stood at 2100 ± 1090 nM. The molecule further came in with an IC50 in data set [4] of 2270 ± 80 nM. Besides, the 50% inhibitory concentration (IC50) in [5] is 740 ± 50 nM. In data set [6], this molecule showed an IC90 of 3840 ± 650 nM and a concentration for half-maximal inhibition (IC50) of 1120 ± 230 nM. Half-maximal inhibition in data set [7] (IC50) was put at 7690 ± 160 nM. In the data set with calf thymus ctDNA, the I/I0 turned out to be 0.35 and the LogKs amounted to 5.4. The “ΔTm ctDNA” value with ctDNA [8] came to 0 °C. The “ΔTm p(dAdT)2” value in the data set on poly (dAdT)2 was 5.4 °C. For the same molecule, in the data set on ctDNA [9], the “induced CD (ICD) signal with ctDNA” value is “positive induced CD spectra” and the “binding mode to ctDNA” value is listed as “minor groove binding mode”.

As a reminder, the IC50 is the concentration that gives 50% inhibition. A word on the IC90: it is the concentration at which the effect reaches the 90% level. Broadly, the melting point is the temperature of the solid-liquid transition.

The values above are taken from publication PMC8409973, “Synthesis, antiproliferative and antitrypanosomal activities, and DNA binding of novel 6-amidino-2-arylbenzothiazoles” (Journal of Enzyme Inhibition and Medicinal Chemistry, 2021).
